Source: the supplement of paper PMC11424490

Assays:
NCI-H2122 [1] = test: relative IC50 of cell viability (CellTiter-Glo); higher = less potent
Outline: (§1)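 Viability was measured by CellTiter-Glo luminescence after 72 h of compound exposure for NCI-H2122 and NCI-H358 or 144 h for SW837, and normalised to DMSO controls as percent of control. Relative IC50, averaged across replicates, and the lower plateau were taken from a four-parameter nonlinear fit.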

NCI-H358 [2] = test: as above
Outline: as §1

SW837 [3] = test: as above
Outline: as §1

NCI-H2122 [4] = test: fitted bottom plateau of viability curve, % of DMSO control; higher = less maximal inhibition; extreme values may be limits of the assay
Outline: as §1

NCI-H358 [5] = test: as above
Outline: as §1

SW837 [6] = test: as above
Outline: as §1

| SMILES | relative IC50 of cell viability (NCI-H2122 [1]) [nM] | relative IC50 of cell viability (NCI-H358 [2]) [nM] | relative IC50 of cell viability (SW837 [3]) [nM] | fitted bottom plateau of viability curve (NCI-H2122 [4]) [%] | fitted bottom plateau of viability curve (NCI-H358 [5]) [%] | fitted bottom plateau of viability curve (SW837 [6]) [%] |
| --- | --- | --- | --- | --- | --- | --- |
| CNS(=O)(=O)Nc1nccc(Cc2c(C)c3ccc(Oc4ncccn4)cc3oc2=O)c1F (top concentration tested 10000 nM) | 130 | 513 | 1570 | 1.94 | 2.19 | 18.8 |
| Cc1cc(C)c(CNC(=O)c2cc(-c3ccc(N4CCNCC4)nc3)cc3c2c(C)cn3C2CCCC2)c(=O)[nH]1 (top concentration tested 50000 nM) | 17400 | 11500 | 10500 | 24.3 | 0.467 | 0.31 |
| CCN1CCN(Cc2ccc(Nc3ncc(F)c(-c4cc(F)c5nc(C)n(C(C)C)c5c4)n3)nc2)CC1 [Abemaciclib] (top concentration tested 10000 nM) | 960 | 297 | 5140 | 35.8 | 0 | 0 |
| Cc1nc(Nc2ncc(C(=O)Nc3c(C)cccc3Cl)s2)cc(N2CCN(CCO)CC2)n1 [Dasatinib] (top concentration tested 10000 nM) |  | 1360 | 7040 | 78.1 | 0 | 0 |
| CN(C)C/C=C/C(=O)Nc1cc2c(Nc3ccc(F)c(Cl)c3)ncnc2cc1O[C@H]1CCOC1 [Afatinib] (top concentration tested 10000 nM) | 1220 | 176 | 5660 | 2.68 | 0 | 0 |
| COc1cccc2c1C(=O)c1c(O)c3c(c(O)c1C2=O)C[C@@](O)(C(C)=O)C[C@@H]3O[C@H]1C[C@H](N)[C@H](O)[C@H](C)O1 [Daunorubicin] (top concentration tested 1000 nM) | 120 | 27.6 | 111 | 17.2 | 1.56 | 0.5 |
| Cc1nc(NC(=O)N2CCC[C@H]2C(N)=O)sc1-c1ccnc(C(C)(C)C(F)(F)F)c1 [BYL-719] (top concentration tested 10000 nM) | 2530 | 2610 |  | 17.8 | 10.9 | 77.5 |
| O=C(O)CNC(=O)c1c(O)c2ccccc2n(Cc2ccccc2)c1=O [IOX2] (top concentration tested 50000 nM) | 51400 | 10800 |  | 52.8 | 2.49 | 52.6 |
| O=C(/C=C/c1cccc(S(=O)(=O)Nc2ccccc2)c1)NO [Belinostat] (top concentration tested 10000 nM) | 274 | 491 | 1050 | 1.64 | 0.339 | 0.0148 |
| COc1cc(Nc2c(C#N)cnc3cc(OCCCN4CCN(C)CC4)c(OC)cc23)c(Cl)cc1Cl [Bosutinib] (top concentration tested 10000 nM) | 3830 | 1510 | 4350 | 23.5 | 25.5 | 12.1 |
| C=CC(=O)N1CCN(c2nc(=O)n(-c3c(C)ccnc3C(C)C)c3nc(-c4c(O)cccc4F)c(F)cc23)[C@@H](C)C1 [AMG510 / Sotorasib] (top concentration tested 1000 nM) | 43 | 20.4 | 57.7 | 12 | 2.09 | 39.6 |
| CCNC(=O)C[C@@H]1N=C(c2ccc(Cl)cc2)c2cc(OC)ccc2-n2c(C)nnc21 [iBET-762] (top concentration tested 10000 nM) |  | 1430 | 839 | 59.6 | 53 | 37.6 |
| COC(=O)[C@]12CCC(C)(C)C[C@H]1[C@H]1C(=O)C=C3[C@@]4(C)C=C(C#N)C(=O)C(C)(C)[C@@H]4CC[C@@]3(C)[C@]1(C)CC2 [Bardoxolone methyl] (top concentration tested 1000 nM) | 319 | 113 | 200 | 38.7 | 0.645 | 0 |
| C[C@@H]1CN(CC(=O)Nc2ccc3c(c2)Cc2cccc(-c4cc(=O)cc(N5CCOCC5)o4)c2S3)C[C@H](C)O1 (top concentration tested 50000 nM) | 11800 | 9010 | 39200 | 31 | 8.33 | 0 |
| CC(C)C[C@H](NC(=O)[C@H](Cc1ccccc1)NC(=O)c1cnccn1)B(O)O [Bortezomib] (top concentration tested 999.9 nM) | 16.5 | 9.81 | 5.91 | 9.55 | 0.755 | 0.446 |
| Cc1nc(Nc2n[nH]c3c2CN(C(=O)N[C@H](CN(C)C)c2ccccc2)C3(C)C)c2sccc2n1 (top concentration tested 9999.9 nM) | 11.9 | 18.1 | 907 | 11.9 | 5.57 | 0 |
| O=C1c2c(O)ccc(O)c2C(=O)c2c(NCCNCCO)ccc(NCCNCCO)c21 [Mitoxantrone] (top concentration tested 999.98 nM) | 62.4 | 19.9 | 79.2 | 28.7 | 7.11 | 0 |
| COc1cc(CCc2cc(NC(=O)c3ccc(N4CC(C)NC(C)C4)cc3)n[nH]2)cc(OC)c1 (stereo not drawn) [AZD4547] (top concentration tested 10000 nM) | 4100 | 5730 |  | 68 | 0 | 86.8 |
| COc1ncc(-c2ccc3nccc(-c4ccnnc4)c3c2)cc1NS(=O)(=O)c1ccc(F)cc1F (top concentration tested 50000 nM) | 43.6 | 32.3 | 677 | 2.3 | 0.391 | 3.09 |
| Nc1cc(C(F)(F)F)c(-c2cc(N3CCOCC3)nc(N3CCOCC3)n2)cn1 [BKM120] (top concentration tested 10000 nM) | 921 | 1310 | 1790 | 3.49 | 7.46 | 20.6 |
| Cc1c(N)nc([C@H](CC(N)=O)NC[C@H](N)C(N)=O)nc1C(=O)N[C@H](C(=O)N[C@H](C)[C@@H](O)[C@H](C)C(=O)N[C@H](C(=O)NCCc1nc(-c2nc(C(=O)NCCC[S+](C)C)cs2)cs1)[C@@H](C)O)[C@@H](OC1OC(CO)C(O)C(O)C1OC1OC(CO)C(O)C(OC(N)=O)C1O)c1cnc[nH]1 (stereo partly drawn) [Bleomycin] (top concentration tested 10000 nM) | 1200 | 1380 | 438 | 45.4 | 12.7 | 4.05 |
| CC1(C)CCC(c2ccc(Cl)cc2)=C(CN2CCN(c3ccc(C(=O)NS(=O)(=O)c4ccc(N[C@H](CCN5CCOCC5)CSc5ccccc5)c(S(=O)(=O)C(F)(F)F)c4)cc3)CC2)C1 [ABT-263] (top concentration tested 10000 nM) | 6240 | 6290 |  | 50 | 0 | 46 |

Continued, in another order:

| relative IC50 of cell viability (NCI-H2122 [1]) [nM] | relative IC50 of cell viability (NCI-H358 [2]) [nM] | relative IC50 of cell viability (SW837 [3]) [nM] | SMILES | fitted bottom plateau of viability curve (NCI-H2122 [4]) [%] | fitted bottom plateau of viability curve (NCI-H358 [5]) [%] | fitted bottom plateau of viability curve (SW837 [6]) [%] |
| --- | --- | --- | --- | --- | --- | --- |
| 6.15 | 6.48 | 10.4 | CCc1c2c(nc3ccc(O)cc13)-c1cc3c(c(=O)n1C2)COC(=O)[C@]3(O)CC [SN-38] (top concentration tested 99.894 nM) | 30.2 | 7.46 | 2.39 |
| 8750 | 2060 | 1680 | COc1cc(Nc2ncc(F)c(Nc3ccc4c(n3)N(COP(=O)(O)O)C(=O)C(C)(C)O4)n2)cc(OC)c1OC [Fostamatinib] (top concentration tested 9999.9 nM) | 37.4 | 0 | 47.6 |
| 2070 | 1340 |  | COc1cc2/c(=N/c3ccc(Br)cc3F)nc[nH]c2cc1OCC1CCN(C)CC1 [Vandetanib] (top concentration tested 10000 nM) | 49.8 | 3.22 | 82.1 |
| 19 | 43.7 | 366 | CCS(=O)(=O)Nc1ccc2c(c1)/C(=C(/Nc1ccc(CN3CCCCC3)cc1)c1ccccc1)C(=O)N2 [Hesperadin] (top concentration tested 10000 nM) | 5.85 | 0 | 0 |
| 887 | 2290 | 1250 | Cc1ccc(C(=O)Nc2ccc(CN3CCN(C)CC3)c(C(F)(F)F)c2)cc1C#Cc1cnc2cccnn12 [Ponatinib] (top concentration tested 10000 nM) | 0.652 | 0.0743 | 0 |
| 3430 | 8340 | 8070 | CCc1nc(N)nc(N)c1-c1ccc(Cl)cc1 [Pyrimethamine] (top concentration tested 50000 nM) | 28.9 | 45.5 | 39 |
| 384 | 922 |  | COc1cc(N2CCC(N3CCN(C)CC3)CC2)ccc1Nc1ncc(Cl)c(Nc2ccccc2S(=O)(=O)C(C)C)n1 [NVP-TAE684] (top concentration tested 10000 nM) | 0.655 | 3.01 | 56.5 |
| 39.7 | 25.2 | 304 | C=C(F)C(=O)N1CCN(c2nc(OC[C@@H]3CCCN3C)nc3c2CCN(c2cccc4cccc(Cl)c24)C3)C[C@@H]1CC#N [MRTX849 / Adagrasib] (top concentration tested 999.97 nM) | 7.33 | 1.24 | 0.0244 |
| 867 | 712 |  | C[C@H](Nc1ccc2c(c1)OCCn1cc(N3C(=O)OC[C@H]3C(F)F)nc1-2)C(N)=O [GDC-0077] (top concentration tested 10000 nM) | 48.4 | 23.1 | 68.7 |
| 4260 | 1300 |  | C#Cc1cccc(Nc2ncnc3cc(OCCOC)c(OCCOC)cc23)c1 [Erlotinib] (top concentration tested 10000 nM) | 29.5 | 12.3 | 82.2 |
| 2560 | 1010 | 2210 | C=CC(=O)Nc1cc(Nc2nccc(-c3cn(C)c4ccccc34)n2)c(OC)cc1N(C)CCN(C)C [Osimertinib] (top concentration tested 10000 nM) | 0.698 | 0 | 11.4 |
| 290 | 470 |  | Cc1nc(-c2cn3c(n2)-c2ccc(-c4cnn(C(C)(C)C(N)=O)c4)cc2OCC3)n(C(C)C)n1 [Taselisib] (top concentration tested 10000 nM) | 16.9 | 1.64 | 86 |
